Inhibition data for 15 compounds are collected here from US10053468B2, “Heterocyclic compound” (TAKEDA PHARMACEUTICAL COMPANY LIMITED, priority 2013, dated 2018).

Read-outs that look alike come from different tables or passages of the source.

For assay [1], the target named is T1, RORγt (Homo sapiens, UniProt P51449).
T1 sequence (P51449 1-497 isoform P51449-2): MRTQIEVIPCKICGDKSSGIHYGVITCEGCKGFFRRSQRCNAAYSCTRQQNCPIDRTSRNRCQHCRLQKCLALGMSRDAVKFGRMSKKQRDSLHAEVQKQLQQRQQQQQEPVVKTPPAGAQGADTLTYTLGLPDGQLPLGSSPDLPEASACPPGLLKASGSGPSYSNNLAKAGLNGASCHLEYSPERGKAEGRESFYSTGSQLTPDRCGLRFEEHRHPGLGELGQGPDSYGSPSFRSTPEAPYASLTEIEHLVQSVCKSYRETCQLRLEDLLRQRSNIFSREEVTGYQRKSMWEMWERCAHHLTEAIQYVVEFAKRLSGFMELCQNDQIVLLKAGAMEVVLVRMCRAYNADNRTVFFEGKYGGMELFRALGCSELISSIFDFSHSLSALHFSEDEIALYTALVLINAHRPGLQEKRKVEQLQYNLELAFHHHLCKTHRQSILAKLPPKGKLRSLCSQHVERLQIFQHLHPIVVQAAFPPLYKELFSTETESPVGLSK
The experiment in a line: RORγt binding test using fluorescent-labeled cholesterol (TR-FRET). Conditions: read-out: Binding inhibitory rate of fluorescent-labeled cholesterol to RORγt at test compound 1 μM (%). The protocol: RORγt Binding Test Using Fluorescent-labeled Cholesterol
The binding activity of the test compound to RORγt was measured by a time resolved fluorescence resonance energy transfer method (TR-FRET) utilizing histidine-tagged RORγt, fluorescent-labeled cholesterol (BODIPY-cholesterol, AVIVA), and terbium-labeled anti-histidine tag antibody (Invitrogen). First, a test compound diluted with an assay buffer (20 mM Tris-HCl (pH 7.5), 100 mM NaCl, 1 mM DTT, 0.1% BSA) was added to a 384 well plate by 3 μL. Then, RORγt diluted with an assay buffer to 240 nM was added by 3 μL, after which fluorescent-labeled cholesterol diluted with the assay buffer to 12 μM was added by 3 μL, and the mixture was stood at room temperature for 20 min. Thereafter, a terbium-labeled anti-histidine tag antibody diluted with the assay buffer to 8 nM was added by 3 μL. The mixture was stood at room temperature for 20 min, and fluorescence intensity (excitation wavelength 320 nm, fluorescence wavelength 520 nm, delay time 100 microseconds) was measured by Envision (PerkinElmer).
Background: Time-resolved FRET reads energy transfer from a long-lived donor to a nearby acceptor.

The target in assay [2] is T1, RORγt. Nature of the assay: Cofactor recruitment test (Alpha Screen, biotinylated SRC-1 peptide). Type of assay: biochemical. Conditions: read-out: Signal value inhibitory rate at test compound 1 μM (%). The protocol:
Cofactor Recruitment Test
Cofactor recruitment test was performed by Alpha Screen (Histidine Detection Kit, PerkinElmer) method. First, a test compound was diluted with an assay buffer (50 mM Tris-HCl (pH 7.5), 50 mM KCl, 1 mM DTT, 0.1% BSA) and added to a 384 well plate by 5 μL. […] The mixture was stood in a dark place for 1 hr, and the signal value was measured by Envision (PerkinElmer).

Assay [3] addresses T1, RORγt. The experiment in a line: Jurkat reporter test (human IL-17 ROR response element luciferase, RORγt vector). Type of assay: cell-based. The conditions noted are these: read-out: Luminescence level inhibitory rate at test compound 3 μM (%). The protocol:
The Jurkat cells used for the reporter test were cultured in a culture medium (RPMI (Invitrogen), 10% FCS (AusGeneX), 100 U/mL penicillin, 100 μg/mL streptomycin). On the day of the test, 4×10^7 cells were recovered by a centrifugal operation (1000 rpm, 5 min.) and suspended in PBS (phosphate buffered saline) (Invitrogen). Thereafter, the cells were recovered again by a centrifugal operation, and suspended in 2 mL of R buffer (NEON transfection kit, Invitrogen). […] Gene transfer was performed by Electroporation apparatus (NEON, Invitrogen) under the conditions of pulse voltage 1350 V, interval 10 milliseconds, number of times 3. The cells after gene transfer were suspended in 40 mL of a reaction medium (RPMI, 10% Lipid reduced FCS (HyClone), 10 mM HEPES (pH 7.5), 100 U/mL penicillin, 100 μg/mL streptomycin, 5 μM lovastatin), and plated in a 96 well plate by 90 μL. A test compound diluted with the reaction medium was added by 10 μL, and the cells were cultured overnight in an incubator. Bright-Glo (Promega) was added by 100 μL, and the mixture was stirred at room temperature for 10 min, and the luminescence level was measured by Envision (PerkinElmer).

The mark [4] stands for this setting: test compound 3 μM, Jurkat cells.

In the case of `COc1ccc2c(c1)CCN(C(=O)c1ccc(=O)[nH]c1)C2C(=O)Nc1ccc([Si](C)(C)C)cc1` (stereo not drawn) [Example 2, 6-methoxy-2-((6-oxo-1,6-dihydropyridin-3-yl)carbonyl)-N-(4-(trimethylsilyl)phenyl)-1,2,3,4-tetrahydroisoquinoline-1-carboxamide], the inhibition at 1 µM was 99.7% at RORγt [1] and 80.5% on RORγt [2]. Further, the inhibition at 3 µM on RORγt [3] (Jurkat) worked out at 98.1%.

Consider `COc1ccc2c(c1)CCN(C(=O)Cc1cc(O)no1)[C@H]2C(=O)Nc1cc(F)c([Si](C)(C)C)c(F)c1` [Example 85, (1R)-N-(3,5-difluoro-4-(trimethylsilyl)phenyl)-2-((3-hydroxy-1,2-oxazol-5-yl)acetyl)-6-methoxy-1,2,3,4-tetrahydroisoquinoline-1-carboxamide], for which the inhibition at 1 µM at RORγt [1] came to 103%; on RORγt [2], 99%. Further, the inhibition at 3 µM on RORγt [3] (Jurkat) worked out at 101%.

Regarding `CCOc1ccc2c(c1)CCN(C(=O)Cc1cc(O)no1)C2C(=O)Nc1ccc(C(C)(C)C)c(F)c1` (stereo not drawn) [Example 54, N-(4-tert-butyl-3-fluorophenyl)-6-ethoxy-2-((3-hydroxy-1,2-oxazol-5-yl)acetyl)-1,2,3,4-tetrahydroisoquinoline-1-carboxamide], the inhibition at 1 µM on RORγt [1] came out at 100%; at RORγt [2] it was 81.9%. The inhibition at 3 µM at RORγt [3] (setting [4]) is 101%.

With `COc1ccc2c(c1)CCN(C(=O)Cc1ccc(OC)nc1)[C@H]2C(=O)Nc1ccc(C(C)(C)C)c(F)c1` [Example 32, (1R)-N-(4-tert-butyl-3-fluorophenyl)-6-methoxy-2-((6-methoxypyridin-3-yl)acetyl)-1,2,3,4-tetrahydroisoquinoline-1-carboxamide], the results for the inhibition at 1 µM on RORγt [1] and on RORγt [2] were 101% and 89.9%, respectively. In addition, the inhibition at 3 µM on RORγt [3] (setting [4]) is 103%.

Regarding `CCOc1ccc2c(n1)CCN(C(=O)Cc1cc(O)no1)[C@H]2C(=O)Nc1cc(F)c([Si](C)(C)C)c(F)c1` [Example 128, (5R)-N-(3,5-difluoro-4-(trimethylsilyl)phenyl)-2-ethoxy-6-((3-hydroxy-1,2-oxazol-5-yl)acetyl)-5,6,7,8-tetrahydro-1,6-naphthyridine-5-carboxamide], the inhibition at 1 µM stood at 103% on RORγt [1] and 100% at RORγt [2]. Moreover, on RORγt [3] (Jurkat), the inhibition at 3 µM is 103%.

On to `CCOc1ccc2c(c1)CCN(C(=O)Cc1cc(O)no1)C2C(=O)Nc1cc(F)c2c(c1)CCC2(C)C` (stereo not drawn) [Example 55, 6-ethoxy-N-(7-fluoro-1,1-dimethyl-2,3-dihydro-1H-inden-5-yl)-2-((3-hydroxy-1,2-oxazol-5-yl)acetyl)-1,2,3,4-tetrahydroisoquinoline-1-carboxamide], for which the values for the inhibition at 1 µM at RORγt [1] and at RORγt [2] were 102% and 73.4%, respectively. Also, the inhibition at 3 µM at RORγt [3] (setting [4]) came out at 100%.

Consider `COc1ccc2c(c1)CCN(C(=O)CCCC(=O)O)[C@H]2C(=O)Nc1cc(F)c(C(C)(C)COCC2CC2)c(F)c1` [Example 161, 5-((1R)-1-((4-(1-(cyclopropylmethoxy)-2-methylpropan-2-yl)-3,5-difluorophenyl)carbamoyl)-6-methoxy-3,4-dihydroisoquinolin-2 (1H)-yl)-5-oxopentanoic acid], for which the inhibition at 1 µM at RORγt [1] was 100%; at RORγt [2], 76%. Also, at RORγt [3] (setting [4]), the inhibition at 3 µM amounted to 90%.

Take `COc1ccc2c(c1)CCN(C(=O)c1cc(O)no1)C2C(=O)Nc1ccc(C(C)(C)C)c(F)c1` (stereo not drawn) [Example 9, N-(4-tert-butyl-3-fluorophenyl)-2-((3-hydroxy-1,2-oxazol-5-yl)carbonyl)-6-methoxy-1,2,3,4-tetrahydroisoquinoline-1-carboxamide]: the inhibition at 1 µM on RORγt [1] stood at 100%; at RORγt [2] it was 77.3%. On RORγt [3] (setting [4]), the inhibition at 3 µM amounted to 101%.

Take `CC[Si](C)(C)c1c(F)cc(NC(=O)[C@H]2c3ccc(COC)nc3CCN2C(=O)Cc2cc(O)no2)cc1F` [Example 173, (5R)-N-(4-(ethyl (dimethyl)silyl)-3,5-difluorophenyl)-6-((3-hydroxy-1,2-oxazol-5-yl)acetyl)-2-(methoxymethyl)-5,6,7,8-tetrahydro-1,6-naphthyridine-5-carboxamide]: the inhibition at 1 µM at RORγt [1] came to 101%; at RORγt [2], 97%. Moreover, at RORγt [3] (Jurkat), the inhibition at 3 µM is 99%.

In the case of `COc1ccc2c(c1)CCN(C(=O)c1cc(O)no1)[C@H]2C(=O)Nc1cc(F)c(C(C)(C)COCC(F)F)c(F)c1` [Example 160, (1R)-N-(4-(1-(2,2-difluoroethoxy)-2-methylpropan-2-yl)-3,5-difluorophenyl)-2-((3-hydroxy-1,2-oxazol-5-yl)carbonyl)-6-methoxy-1,2,3,4-tetrahydroisoquinoline-1-carboxamide], the inhibition at 1 µM on RORγt [1] amounted to 100%; on RORγt [2] it was 82%. Besides, the inhibition at 3 µM at RORγt [3] (setting [4]) was 98%.

In the case of `COc1ccc2c(c1)CCN(C(=O)c1cc(O)no1)[C@H]2C(=O)Nc1cc(F)c(C(C)(C)COCC2CC2)c(F)c1` [Example 158, (1R)-N-(4-(1-(cyclopropylmethoxy)-2-methylpropan-2-yl)-3,5-difluorophenyl)-2-((3-hydroxy-1,2-oxazol-5-yl)carbonyl)-6-methoxy-1,2,3,4-tetrahydroisoquinoline-1-carboxamide], the inhibition at 1 µM on RORγt [1] stood at 101%; at RORγt [2], 76%. In addition, the inhibition at 3 µM at RORγt [3] (setting [4]) was determined as 93%.

With `COc1ccc2c(c1)CCN(C(=O)c1cc(O)no1)C2C(=O)Nc1ccc([Si](C)(C)C)c(F)c1` (stereo not drawn) [Example 3, N-(3-fluoro-4-(trimethylsilyl)phenyl)-2-((3-hydroxy-1,2-oxazol-5-yl)carbonyl)-6-methoxy-1,2,3,4-tetrahydroisoquinoline-1-carboxamide], the inhibition at 1 µM is 101% at RORγt [1] and 92.7% at RORγt [2]. The inhibition at 3 µM at RORγt [3] (Jurkat) was 99.6%.

Regarding `CCOCC(C)(C)c1c(F)cc(NC(=O)[C@H]2c3ccc(OCC)cc3CCN2C(=O)Cc2cc(O)no2)cc1F` [Example 168, (1R)-6-ethoxy-N-(4-(1-ethoxy-2-methylpropan-2-yl)-3,5-difluorophenyl)-2-((3-hydroxy-1,2-oxazol-5-yl)acetyl)-1,2,3,4-tetrahydroisoquinoline-1-carboxamide], the inhibition at 1 µM amounted to 97% on RORγt [1] and 86% at RORγt [2]. At RORγt [3] (setting [4]), the inhibition at 3 µM amounted to 99%.

Consider `COc1ccc2c(n1)CCN(C(=O)c1cc(O)no1)[C@H]2C(=O)Nc1cc(F)c([Si](C)(C)C)c(F)c1` [Example 122, (5R)-N-(3,5-difluoro-4-(trimethylsilyl)phenyl)-6-((3-hydroxy-1,2-oxazol-5-yl)carbonyl)-2-methoxy-5,6,7,8-tetrahydro-1,6-naphthyridine-5-carboxamide], for which the inhibition at 1 µM was found to be 102% at RORγt [1] and 99% at RORγt [2]. In addition, the inhibition at 3 µM on RORγt [3] (Jurkat) stood at 103%.

Turning to `CC[Si](C)(C)c1c(F)cc(NC(=O)[C@H]2c3ccc(OC)nc3CCN2C(=O)Cc2cc(O)no2)cc1F` [Example 113, (5R)-N-(4-(ethyl (dimethyl)silyl)-3,5-difluorophenyl)-6-((3-hydroxy-1,2-oxazol-5-yl)acetyl)-2-methoxy-5,6,7,8-tetrahydro-1,6-naphthyridine-5-carboxamide], the inhibition at 1 µM at RORγt [1] was determined as 104%; at RORγt [2], 99%. Besides, the inhibition at 3 µM on RORγt [3] (Jurkat) came to 101%.
